Test results taken from publication PMC12373846, “Hemoglobin as a pseudoperoxidase and drug target for oxidative stress-related diseases” (Signal Transduction and Targeted Therapy, 2025).
Several values for one entry are separate records, joined by “and”; a condition that tells them apart may be missing. Equal values may be shown once. Read-outs that look alike come from different tables or passages of the source.

Experiments:
Assay in all cases: SafetyScreen87 panel
[1] = biological target: T1, 5-HT1B (h) (antagonist radioligand) (Homo sapiens, UniProt P28222); details: 1.0E-06 M; mean; read-out: % Inhibition of Control Specific Binding (1st, 2nd, Mean)
T1 construct: purchased DiscoverX KINOMEscan scanEDGE; Eurofins Cerep SafetyScreen87
Description: (§1) The possibility of KDS12025 on kinase off-target, the KINOMEscan panel of scanEDGE assay was conducted in DiscoverX (CA, USA) using a site-directed competition binding with the test compounds. The assay results are given in Supplementary Table 4 and experimental information is available on the DiscoverX web page (www.discoverx.com). Moreover, the Delta SafetyScreen87 panel assay was conducted in Eurofins Discovery (Cerep, France). The assay results are given in Supplementary Table 5 and experimental information is available on the DiscoverX web page (https://www.eurofinsdiscoveryservices.com).

[2] = biological target: T2, 5-HT2B (h) (agonist radioligand) (Homo sapiens, UniProt P41595); details: 1.0E-06 M; mean; read-out: % Inhibition of Control Specific Binding (1st, 2nd, Mean)
T2 construct: purchased DiscoverX KINOMEscan scanEDGE; Eurofins Cerep SafetyScreen87
Description: as §1

[3] = biological target: T3, 5-HT2C (h) (antagonist radioligand) (Homo sapiens, UniProt P28335); details: 1.0E-06 M; mean; read-out: % Inhibition of Control Specific Binding (1st, 2nd, Mean)
T3 construct: purchased DiscoverX KINOMEscan scanEDGE; Eurofins Cerep SafetyScreen87
Description: as §1

[4] = biological target: T4, A2A (h) (agonist radioligand) (Homo sapiens, UniProt P29274); details: 1.0E-06 M, read-out: % Inhibition of Control Specific Binding (1st, 2nd, Mean)
T4 construct: purchased DiscoverX KINOMEscan scanEDGE; Eurofins Cerep SafetyScreen87
Description: as §1

[5] = biological target: T5, AT1 (h) (antagonist radioligand) (Homo sapiens, UniProt P30556); details: 1.0E-06 M, read-out: % Inhibition of Control Specific Binding (1st, 2nd, Mean)
T5 construct: purchased DiscoverX KINOMEscan scanEDGE; Eurofins Cerep SafetyScreen87
Description: as §1

[6] = biological target: T6, CB1 (h) (agonist radioligand) (Homo sapiens, UniProt P21554); details: 1.0E-06 M, read-out: % Inhibition of Control Specific Binding (1st, 2nd, Mean)
T6 construct: purchased DiscoverX KINOMEscan scanEDGE; Eurofins Cerep SafetyScreen87
Description: as §1

[7] = biological target: T7, CCK1 (CCKA) (h) (agonist radioligand) (Homo sapiens, UniProt P32238); details: 1.0E-06 M; read-out: % Inhibition of Control Specific Binding (1st, 2nd, Mean)
T7 construct: purchased DiscoverX KINOMEscan scanEDGE; Eurofins Cerep SafetyScreen87
Description: as §1

[8] = biological target: T8, CCK2 (CCKB) (h) (agonist radioligand) (Homo sapiens, UniProt P32239)
T8 construct: purchased DiscoverX KINOMEscan scanEDGE; Eurofins Cerep SafetyScreen87
Description: as §1

[9] = tested on: Cl- channel (GABA-gated) (TBOB site) (antagonist radioligand); details: 1.0E-06 M, read-out: % Inhibition of Control Specific Binding (1st, 2nd, Mean)
Description: as §1

[10] = biological target: T9, CysLT1 (LTD4) (h) (agonist radioligand) (Homo sapiens, UniProt Q9Y271); details: read-out: % Inhibition of Control Specific Binding (1st, 2nd, Mean); 1.0E-06 M
T9 construct: purchased DiscoverX KINOMEscan scanEDGE; Eurofins Cerep SafetyScreen87
Description: as §1

[11] = biological target: T10, D2S (h) (agonist radioligand) (Homo sapiens, UniProt P14416); details: 1.0E-06 M, read-out: % Inhibition of Control Specific Binding (1st, 2nd, Mean)
T10 construct: purchased DiscoverX KINOMEscan scanEDGE; Eurofins Cerep SafetyScreen87
Description: as §1

[12] = biological target: T11, GABAB(1b) (h) (antagonist radioligand) (Homo sapiens, UniProt Q9UBS5); details: 1.0E-06 M, read-out: % Inhibition of Control Specific Binding (1st, 2nd, Mean)
T11 construct: purchased DiscoverX KINOMEscan scanEDGE; Eurofins Cerep SafetyScreen87
Description: as §1

[13] = biological target: T12, H2 (h) (antagonist radioligand) (Homo sapiens, UniProt P25021); details: read-out: % Inhibition of Control Specific Binding (1st, 2nd, Mean); 1.0E-06 M
T12 construct: purchased DiscoverX KINOMEscan scanEDGE; Eurofins Cerep SafetyScreen87
Description: as §1

[14] = biological target: T13, MAO-A (antagonist radioligand) (Rattus norvegicus, UniProt P21396); details: 1.0E-06 M; mean; read-out: % Inhibition of Control Specific Binding (1st, 2nd, Mean)
T13 construct: purchased DiscoverX KINOMEscan scanEDGE; Eurofins Cerep SafetyScreen87
Description: as §1

[15] = biological target: T14, MC4 (h) (agonist radioligand) (Homo sapiens, UniProt P32245); details: 1.0E-06 M; read-out: % Inhibition of Control Specific Binding (1st, 2nd, Mean)
T14 construct: purchased DiscoverX KINOMEscan scanEDGE; Eurofins Cerep SafetyScreen87
Description: as §1

[16] = biological target: T15, N neuronal alpha 4beta 2 (h) (agonist radioligand) (Homo sapiens, UniProt P17787+P43681); details: 1.0E-06 M; mean; read-out: % Inhibition of Control Specific Binding (1st, 2nd, Mean)
T15 construct: purchased DiscoverX KINOMEscan scanEDGE; Eurofins Cerep SafetyScreen87
Description: as §1

[17] = biological target: T16, PPARgamma (h) (agonist radioligand) (Homo sapiens, UniProt P37231); details: read-out: % Inhibition of Control Specific Binding (1st, 2nd, Mean); 1.0E-06 M
T16 construct: purchased DiscoverX KINOMEscan scanEDGE; Eurofins Cerep SafetyScreen87
Description: as §1

[18] = biological target: T17, Potassium Channel hERG (human)- [3H] Dofetilide (Homo sapiens, UniProt Q12809); details: 1.0E-06 M, read-out: % Inhibition of Control Specific Binding (1st, 2nd, Mean)
T17 construct: Eurofins Discovery (Cerep, France) SafetyScreen87 panel
Description: as §1

[19] = biological target: T18, V1a (h) (agonist radioligand) (Homo sapiens, UniProt P37288); details: 1.0E-06 M; mean; read-out: % Inhibition of Control Specific Binding (1st, 2nd, Mean)
T18 construct: purchased DiscoverX KINOMEscan scanEDGE; Eurofins Cerep SafetyScreen87
Description: as §1

[20] = biological target: T19, adenosine transporter (antagonist radioligand) (Cavia porcellus, UniProt H0V4R7)
T19 construct: Eurofins Discovery (Cerep, France) SafetyScreen87 panel
Description: as §1

[21] = biological target: T20, alpha 1A (h) (antagonist radioligand) (Homo sapiens, UniProt P35348); details: 1.0E-06 M, read-out: % Inhibition of Control Specific Binding (1st, 2nd, Mean)
T20 construct: purchased DiscoverX KINOMEscan scanEDGE; Eurofins Cerep SafetyScreen87
Description: as §1

[22] = biological target: T21, alpha 1B (h) (antagonist radioligand) (Homo sapiens, UniProt P35368); details: 1.0E-06 M, read-out: % Inhibition of Control Specific Binding (1st, 2nd, Mean)
T21 construct: purchased DiscoverX KINOMEscan scanEDGE; Eurofins Cerep SafetyScreen87
Description: as §1

[23] = biological target: T22, alpha 2A (h) (antagonist radioligand) (Homo sapiens, UniProt P08913); details: 1.0E-06 M, read-out: % Inhibition of Control Specific Binding (1st, 2nd, Mean)
T22 construct: purchased DiscoverX KINOMEscan scanEDGE; Eurofins Cerep SafetyScreen87
Description: as §1

[24] = biological target: T23, alpha 2B (h) (antagonist radioligand) (Homo sapiens, UniProt P18089); details: 1.0E-06 M, read-out: % Inhibition of Control Specific Binding (1st, 2nd, Mean)
T23 construct: purchased DiscoverX KINOMEscan scanEDGE; Eurofins Cerep SafetyScreen87
Description: as §1

[25] = biological target: T24, delta (DOP) (h) (agonist radioligand) (Homo sapiens, UniProt P41143); details: 1.0E-06 M; mean; read-out: % Inhibition of Control Specific Binding (1st, 2nd, Mean)
T24 construct: purchased DiscoverX KINOMEscan scanEDGE; Eurofins Cerep SafetyScreen87
Description: as §1

[26] = biological target: T25, dopamine transporter (h) (antagonist radioligand) (Homo sapiens, UniProt Q01959); details: 1.0E-06 M, read-out: % Inhibition of Control Specific Binding (1st, 2nd, Mean)
T25 construct: Eurofins Discovery (Cerep, France) SafetyScreen87 panel
Description: as §1

[27] = tested on: glycine (strychnine-insensitive) (antagonist radioligand); details: 1.0E-06 M; read-out: % Inhibition of Control Specific Binding (1st, 2nd, Mean)
Description: as §1

hERG potassium channel = biological target: T26, hERG potassium channel (Homo sapiens, UniProt Q12809); details: human, probe [3H] Dofetilide, 1.0E-06 M; read-out: % Inhibition of Control Specific Binding (1st, 2nd, Mean)
T26 construct: Eurofins Discovery (Cerep, France) SafetyScreen87 panel
Description: as §1

[28] = tested on: kainate (agonist radioligand); details: 1.0E-06 M, read-out: % Inhibition of Control Specific Binding (1st, 2nd, Mean)
Description: as §1

[29] = biological target: T27, mGluR5 (h) (agonist radioligand) (Homo sapiens, UniProt P41594); details: 1.0E-06 M, read-out: % Inhibition of Control Specific Binding (1st, 2nd, Mean)
T27 construct: purchased DiscoverX KINOMEscan scanEDGE; Eurofins Cerep SafetyScreen87
Description: as §1

[30] = 1.0E-06 M; read-out: % Inhibition of Control Specific Binding (1st, 2nd, Mean)
[31] = read-out: % Inhibition of Control Specific Binding (1st, 2nd, Mean); 1.0E-06 M

T10 sequence (P14416 1-414 isoform P14416-2): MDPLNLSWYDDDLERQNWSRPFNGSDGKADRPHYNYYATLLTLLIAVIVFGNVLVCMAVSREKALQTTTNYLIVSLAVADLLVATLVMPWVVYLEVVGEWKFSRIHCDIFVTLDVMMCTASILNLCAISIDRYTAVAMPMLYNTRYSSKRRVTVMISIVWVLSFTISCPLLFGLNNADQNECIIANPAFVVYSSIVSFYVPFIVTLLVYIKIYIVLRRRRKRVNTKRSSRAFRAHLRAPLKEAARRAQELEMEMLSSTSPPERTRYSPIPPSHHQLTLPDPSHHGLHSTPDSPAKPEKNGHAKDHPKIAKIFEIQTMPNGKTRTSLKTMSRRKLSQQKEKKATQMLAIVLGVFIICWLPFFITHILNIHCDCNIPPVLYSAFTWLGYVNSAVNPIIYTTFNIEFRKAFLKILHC
T4 sequence (P29274 whole entry): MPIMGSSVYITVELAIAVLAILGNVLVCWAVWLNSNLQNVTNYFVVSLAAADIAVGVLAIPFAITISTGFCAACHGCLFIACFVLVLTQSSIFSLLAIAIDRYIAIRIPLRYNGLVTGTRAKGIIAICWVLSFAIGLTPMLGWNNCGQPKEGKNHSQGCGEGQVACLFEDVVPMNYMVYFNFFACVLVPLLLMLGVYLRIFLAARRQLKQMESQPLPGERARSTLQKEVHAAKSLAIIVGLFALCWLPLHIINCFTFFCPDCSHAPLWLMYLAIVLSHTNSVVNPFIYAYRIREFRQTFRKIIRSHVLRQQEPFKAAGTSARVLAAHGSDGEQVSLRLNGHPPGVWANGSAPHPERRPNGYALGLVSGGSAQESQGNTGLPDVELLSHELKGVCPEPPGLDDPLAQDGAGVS
T21 sequence (P35368 whole entry): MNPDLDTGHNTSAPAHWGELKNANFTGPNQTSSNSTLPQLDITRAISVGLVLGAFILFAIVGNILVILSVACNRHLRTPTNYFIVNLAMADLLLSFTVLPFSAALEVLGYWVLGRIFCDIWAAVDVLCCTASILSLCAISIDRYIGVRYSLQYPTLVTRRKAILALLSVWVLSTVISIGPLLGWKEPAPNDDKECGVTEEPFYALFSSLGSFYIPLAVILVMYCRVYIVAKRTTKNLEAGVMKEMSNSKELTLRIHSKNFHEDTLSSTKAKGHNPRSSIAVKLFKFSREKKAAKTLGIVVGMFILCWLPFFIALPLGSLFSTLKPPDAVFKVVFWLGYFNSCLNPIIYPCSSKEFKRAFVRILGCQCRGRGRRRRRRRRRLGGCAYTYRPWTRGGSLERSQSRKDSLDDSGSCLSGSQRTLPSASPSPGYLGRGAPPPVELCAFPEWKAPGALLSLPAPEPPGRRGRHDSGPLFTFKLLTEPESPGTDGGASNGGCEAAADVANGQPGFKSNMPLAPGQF
T20 sequence (P35348 whole entry): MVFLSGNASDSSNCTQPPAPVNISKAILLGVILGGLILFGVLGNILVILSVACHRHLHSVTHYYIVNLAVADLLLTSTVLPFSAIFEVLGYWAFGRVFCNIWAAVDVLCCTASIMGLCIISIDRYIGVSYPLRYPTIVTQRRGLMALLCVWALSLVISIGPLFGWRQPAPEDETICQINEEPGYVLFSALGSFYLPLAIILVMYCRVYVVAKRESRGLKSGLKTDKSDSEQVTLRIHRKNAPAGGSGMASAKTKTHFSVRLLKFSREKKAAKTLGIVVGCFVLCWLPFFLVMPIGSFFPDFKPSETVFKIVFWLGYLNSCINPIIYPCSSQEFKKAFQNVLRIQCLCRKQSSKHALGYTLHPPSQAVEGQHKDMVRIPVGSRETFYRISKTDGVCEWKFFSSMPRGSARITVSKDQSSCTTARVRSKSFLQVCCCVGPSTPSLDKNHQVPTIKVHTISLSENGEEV
T6 sequence (P21554 whole entry): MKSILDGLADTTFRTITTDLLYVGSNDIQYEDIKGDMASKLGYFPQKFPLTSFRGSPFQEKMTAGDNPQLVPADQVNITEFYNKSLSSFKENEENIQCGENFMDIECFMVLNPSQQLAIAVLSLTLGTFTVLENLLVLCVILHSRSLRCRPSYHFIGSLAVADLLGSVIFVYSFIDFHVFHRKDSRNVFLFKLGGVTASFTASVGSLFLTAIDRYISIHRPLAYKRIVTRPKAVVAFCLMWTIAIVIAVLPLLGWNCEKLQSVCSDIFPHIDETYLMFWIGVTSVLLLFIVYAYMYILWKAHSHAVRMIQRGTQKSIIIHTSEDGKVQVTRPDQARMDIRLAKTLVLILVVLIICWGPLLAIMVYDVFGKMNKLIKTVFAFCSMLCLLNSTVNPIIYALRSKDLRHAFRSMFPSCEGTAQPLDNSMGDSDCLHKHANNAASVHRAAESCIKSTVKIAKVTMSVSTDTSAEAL
T5 sequence (P30556 whole entry): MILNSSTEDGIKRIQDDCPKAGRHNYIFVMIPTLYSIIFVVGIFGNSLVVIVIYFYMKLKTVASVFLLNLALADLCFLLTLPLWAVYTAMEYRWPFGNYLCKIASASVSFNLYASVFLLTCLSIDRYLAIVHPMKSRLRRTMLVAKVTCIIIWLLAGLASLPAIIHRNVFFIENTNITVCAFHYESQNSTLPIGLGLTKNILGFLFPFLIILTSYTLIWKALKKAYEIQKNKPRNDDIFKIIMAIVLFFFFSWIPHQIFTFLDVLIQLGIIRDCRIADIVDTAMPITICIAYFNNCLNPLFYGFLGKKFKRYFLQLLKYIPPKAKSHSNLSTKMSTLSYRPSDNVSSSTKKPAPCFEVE
T11 sequence (Q9UBS5 1-844 isoform Q9UBS5-2): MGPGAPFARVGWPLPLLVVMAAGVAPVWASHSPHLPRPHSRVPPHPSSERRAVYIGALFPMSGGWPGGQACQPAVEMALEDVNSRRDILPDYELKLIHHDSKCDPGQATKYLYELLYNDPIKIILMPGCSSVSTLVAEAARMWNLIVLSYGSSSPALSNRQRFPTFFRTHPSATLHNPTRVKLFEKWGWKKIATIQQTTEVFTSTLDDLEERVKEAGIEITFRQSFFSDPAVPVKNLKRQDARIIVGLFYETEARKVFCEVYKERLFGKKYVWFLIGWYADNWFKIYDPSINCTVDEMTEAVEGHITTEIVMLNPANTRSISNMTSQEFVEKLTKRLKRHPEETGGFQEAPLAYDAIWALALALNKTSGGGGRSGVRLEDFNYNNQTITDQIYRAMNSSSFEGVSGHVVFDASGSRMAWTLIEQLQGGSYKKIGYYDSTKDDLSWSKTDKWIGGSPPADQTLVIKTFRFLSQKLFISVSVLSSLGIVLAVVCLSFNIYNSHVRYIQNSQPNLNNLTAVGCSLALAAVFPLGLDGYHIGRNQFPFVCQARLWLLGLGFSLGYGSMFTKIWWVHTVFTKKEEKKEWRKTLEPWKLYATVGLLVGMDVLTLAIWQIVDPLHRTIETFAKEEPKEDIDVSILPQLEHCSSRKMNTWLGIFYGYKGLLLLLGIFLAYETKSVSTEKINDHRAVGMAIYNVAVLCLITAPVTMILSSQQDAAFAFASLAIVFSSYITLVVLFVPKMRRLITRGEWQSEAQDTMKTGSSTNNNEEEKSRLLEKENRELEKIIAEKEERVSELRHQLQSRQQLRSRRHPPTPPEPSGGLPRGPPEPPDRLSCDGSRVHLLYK
T22 sequence (P08913 whole entry): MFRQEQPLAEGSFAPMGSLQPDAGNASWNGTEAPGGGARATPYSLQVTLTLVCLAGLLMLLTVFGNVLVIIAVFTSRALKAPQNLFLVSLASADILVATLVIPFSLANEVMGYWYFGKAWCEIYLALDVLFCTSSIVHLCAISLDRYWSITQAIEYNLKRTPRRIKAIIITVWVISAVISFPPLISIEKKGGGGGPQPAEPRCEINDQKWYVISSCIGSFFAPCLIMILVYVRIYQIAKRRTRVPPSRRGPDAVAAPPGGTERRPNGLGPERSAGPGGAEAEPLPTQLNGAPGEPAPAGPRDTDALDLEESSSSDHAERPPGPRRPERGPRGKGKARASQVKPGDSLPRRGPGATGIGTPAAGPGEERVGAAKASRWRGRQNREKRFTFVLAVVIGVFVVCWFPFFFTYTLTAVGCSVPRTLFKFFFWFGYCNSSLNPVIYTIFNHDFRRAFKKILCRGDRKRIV
T25 sequence (Q01959 whole entry): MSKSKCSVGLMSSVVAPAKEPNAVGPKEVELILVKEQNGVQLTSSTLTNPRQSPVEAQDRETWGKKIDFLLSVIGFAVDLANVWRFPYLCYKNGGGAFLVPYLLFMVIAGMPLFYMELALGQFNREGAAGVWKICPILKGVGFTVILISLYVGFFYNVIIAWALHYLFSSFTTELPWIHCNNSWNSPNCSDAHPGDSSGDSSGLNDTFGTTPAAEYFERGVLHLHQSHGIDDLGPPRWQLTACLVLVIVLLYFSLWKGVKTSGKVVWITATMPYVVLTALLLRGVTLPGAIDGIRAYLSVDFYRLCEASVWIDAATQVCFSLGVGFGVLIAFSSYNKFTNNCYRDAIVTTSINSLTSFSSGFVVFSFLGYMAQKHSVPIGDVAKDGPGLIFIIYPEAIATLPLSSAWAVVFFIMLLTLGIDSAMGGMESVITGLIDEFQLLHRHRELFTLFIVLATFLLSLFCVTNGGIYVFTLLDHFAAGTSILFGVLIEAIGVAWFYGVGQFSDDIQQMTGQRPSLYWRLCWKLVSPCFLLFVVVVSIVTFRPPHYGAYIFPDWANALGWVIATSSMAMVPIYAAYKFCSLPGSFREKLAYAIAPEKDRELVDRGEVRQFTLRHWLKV
T24 sequence (P41143 whole entry): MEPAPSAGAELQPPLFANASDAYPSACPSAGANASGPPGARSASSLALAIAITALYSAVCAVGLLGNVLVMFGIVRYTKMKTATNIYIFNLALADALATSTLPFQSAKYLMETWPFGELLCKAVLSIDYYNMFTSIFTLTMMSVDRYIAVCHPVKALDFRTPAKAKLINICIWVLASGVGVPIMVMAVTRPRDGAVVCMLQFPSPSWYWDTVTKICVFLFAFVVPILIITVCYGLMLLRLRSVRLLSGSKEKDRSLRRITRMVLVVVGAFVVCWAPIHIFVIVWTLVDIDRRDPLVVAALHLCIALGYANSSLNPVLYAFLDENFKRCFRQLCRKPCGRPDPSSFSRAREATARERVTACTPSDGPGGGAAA

CNc1ccc(NCCc2ccccc2OC)cc1.Cl [KDS12025, N^1-(2-methoxyphenethyl)-N^4-methylbenzene-1,4-diamine hydrochloride salt]
activity [1]: 90.8% | activity [2]: 63.9% | activity [3]: 76.4% | activity ([4]; mean): 90.7% | activity [4]: 90.3% and 91.2% | activity ([5]; mean): 87.4% | activity [5]: 82.3% and 92.5% | activity ([6]; mean): 80% | activity [6]: 81.7% and 78.4% | activity [7]: 104% | activity [8, 30]: 97% | activity [8, 31]: 107% | activity ([9]; mean): 96.4% | activity [9]: 104% and 89% | activity [10]: 87.1% | activity ([11]; mean): 61.9% | activity [11]: 64% and 59.8% | activity ([12]; mean): 104% | activity [12]: 106% and 101% | activity [13]: 94.2% | activity [14]: 100% | activity [15]: 88.7% | activity [16]: 98.4% | activity [17]: 94.7% | activity ([18]; mean): 68.5% | activity [18]: 66.8% | activity [19]: 110% | activity [20, 30]: 101% | activity [20, 31]: 98.6% | activity ([21]; mean): 87.1% | activity [21]: 87.6% and 86.5% | activity ([22]; mean): 65.4% | activity [22]: 61.4% and 69.4% | activity ([23]; mean): 86.1% | activity [23]: 86.9% and 85.4% | activity ([24]; mean): 84.2% | activity [24]: 81.9% and 86.6% | activity [25]: 79.7% | activity ([26]; mean): 107% | activity [26]: 102% and 111% | activity [27]: 96.8% and 100% | activity at 1 µM (hERG potassium channel): 70.3% | activity ([28]; mean): 97.4% | activity [28]: 76.8% and 118% | activity ([29]; mean): 115% | activity [29]: 114% and 116%
